In one data set the test system is E. coli WT strain MG1655. Kind of data set: MIC determination, WT strain MG1655. It counts as cell-based, Escherichia coli. The protocol: (§1) The minimal inhibitory concentration (MIC) values of thanatin, thanatin scramble, and vancomycin (as a positive control) were assessed with a protocol adapted from [Wiegand et al. (2008)] using 96-well microtiter plates. Stationary phase cultures of the E. coli WT strain MG1655 ([Blattner et al., 1997]), the permeabilized mutants AS19 ([Sekiguchi and Iida, 1967]) and NR698 ([Ruiz et al., 2005]), and the BACTH strain BTH101 ([Karimova et al., 1998]; [Ouellette et al., 2017]) grown at 37°C in LB medium, were diluted in fresh medium adjusting the OD600 to a value of 0.05 and incubated in the presence of twofold decreasing concentrations of the compounds ranging from 64 μg/mL to 62.5 ng/mL. After 24 h of incubation at 37°C, the OD600 was measured by a plate reader (EnSpire Multimode Plate Reader, PerkinElmer). The MIC value was determined as the lowest concentration of compound leading to no detectable growth.

Data set [1] deals with E. coli permeabilized mutant AS19. Kind of data set: microbe, parasite or virus in culture. It counts as cell-based, Escherichia coli. The conditions noted are these: 24 h. The protocol: as §1
For data set [2], the system named is E. coli permeabilized mutant NR698. Description: microbe, parasite or virus in culture. The conditions noted are these: 24 h. It counts as cell-based, Escherichia coli. The protocol:
as §1

A further data set relates to E. coli BTH101. Description: microbe, parasite or virus in culture. It counts as cell-based, Escherichia coli. On the procedure: as §1
For a further data set, the system named is LptC–LptAm interaction. Description: SPR, effect on LptC binding to immobilized LptAm. Details: species or system Escherichia coli. The settings on record: peptide up to 1 μM followed by LptC injection at 10 μM, HBS-N, listed as Scr. The source says:
(§2) Escherichia coli LptC lacking the first 23 residues of the transmembrane domain was expressed from a plasmid (LptC pQESH, QIAGEN) with an N-terminal His-Tag and purified as described ([Laguri et al., 2017]). LptC was expressed in ^15N enriched deuterated medium with specific ^13C-^1H labeling of Isoleucines δ1 and Leucine and Valine proR methyl groups according to standard protocols ([Kerfah et al., 2015]) with NMRbio precursors^1. LptAm coding for residues 28–159 followed by a […] TAG in a pET21b vector was expressed and purified as described ([Laguri et al., 2017]). Both proteins were exchanged to 50 mM Na2HPO4 pH 8.0, 150 mM NaCl buffer.
(§3) Surface plasmon resonance (SPR) experiments were performed on a Biacore T200 with a CM3 chip. HBS-P+ and HBS-N buffers (GE Healthcare) were used for immobilization and interactions, respectively. 66 Resonance units (RUs) of LptAm were immobilized on a flow cell by the amine (EDC-NHS) coupling method followed by ethanolamine saturation, with a flow cell modified only with EDC-NHS-ethanolamine as reference for subtractions. For interactions, protein and ligands were diluted in HBS-N running buffer and regeneration between injections achieved with a 30 s pulse of 10 mM HCl. Sensorgrams shown were subtracted with the reference flow cell as well as with injection of buffer alone.

Data set [3] deals with LptC–LptAm interaction (T25LptC–TM18LptAm, CA). Description: BACTH assay, inhibition of LptC–LptAm interaction. The class given is cell-based, Escherichia coli. The conditions noted are these: BTH101, 18 h, 30°C, 0.5 mM IPTG, 0.7, 1.0, 1.4 μg/mL (sub-MIC), at least eight technical replicates from two independent experiments. The protocol:
(§4) To study protein–protein interactions with the BACTH system, electrocompetent BTH101 cells were co-transformed with each pair of plasmids to be tested (Figure 2A), plated onto LB plates containing selective antibiotics (100 μg/mL ampicillin and 50 μg/mL spectinomycin) and incubated at 30°C for 24–48 h. Interaction efficiencies were quantified by determining the β-galactosidase activities in 96-well microtiter plates according to a protocol adapted from [Paschos et al. (2011)]. For this measurement, at least eight clones from each plasmid combination were analyzed for β-galactosidase activity in two independent experiments. […] The β-galactosidase activity was measured from 20 μL culture diluted in 80 μL PM2 buffer (70 mM Na2HPO4. 12H20, 30 mM NaH2PO4. H2O, 1 mM MgSO4, 0.2 mM MnSO4, pH 7.0) containing 8 mg/mL ortho-nitrophenyl-β-galactoside (ONPG), 0.01% SDS, and 50 mM β-mercaptoethanol. […] The optical densities at 420 and 550 nm were recorded for each sample using a plate reader (EnSpire Multimode Plate Reader, PerkinElmer) and the specific activity was calculated with the formula: Miller units = [OD420 - (1.75 × OD550)]/[t × OD600 × (volume in mL)] × 1000, where OD600 is the optical density at 600 nm after overnight incubation and t is the time in minutes needed for color formation.

The test system of data set [4] is LptA–LptA interaction (TM25LptA–TM18LptA, AA). Description: BACTH assay, inhibition of LptA–LptA interaction. The class given is cell-based, Escherichia coli. The conditions noted are these: BTH101, 18 h, 30°C, 0.5 mM IPTG, 0.7, 1.0, 1.4, 2.8 μg/mL (sub-MIC); at least eight technical replicates from two independent experiments. On the procedure: as §4
The test system of another data set is LptAm. The settings on record: SPR, Biacore T200, CM3 chip, HBS-N; peptide 0, 0.1, 1 μM; listed as Scr.
Text: as §2, §3

In a further data set the test system is LptC–LptAm complex. Kind of data set: NMR, disruption of LptC–LptAm complex. The class given is binding, Escherichia coli. The conditions noted are these: 2D-[1H,13C]-methyl-SOFAST, 25°C, 20 μM LptC, 40 μM LptAm, 42 μM peptide, 50 mM Na2HPO4 pH 8.0, 150 mM NaCl, 10% D2O. On the procedure: Nuclear magnetic resonance experiments were recorded at 25°C on Bruker 600 MHz spectrometer equipped with a triple resonance cryoprobe. […] Unlabeled LptAm at 40 μM prepared in the exact same buffer was added to LptC to achieve 100% of LptC complexed with LptAm. Thanatin or Scr at 42 μM was added to the complex and interaction experiments were followed using 2D-[^1H, ^13C]-methyl-SOFAST experiments. NMR experiments were processed and analyzed using Topspin 3.2 and CcpNmr 2.4.

The subject of data set [5] is permeabilized E. coli mutants (AS19 and NR698). Description: MIC, permeabilized E. coli mutants. It counts as cell-based, Escherichia coli. The conditions noted are these: permeabilized mutant strains; in words. The protocol:
as §1

The conditions of data set [6]: in vivo; cited from earlier work. The source says:
(§5) Due to its relevance in Gram-negative bacteria cell physiology, LPS biogenesis can be considered a promising target for the development of novel antibacterial molecules. Potent inhibitors of the lipid A biosynthesis were identified in past studies and are continuously in development ([Simpson and Trent, 2019]). Moreover, two compounds targeting the MsbA-mediated IM translocation process have been recently reported ([Ho et al., 2018]; [Zhang et al., 2018]). However, the only inhibitor of LPS biogenesis to have entered, so far, Phase III trials is Murepavadin, a macrocyclic peptidomimetic select ...

Data set [7] concerns Pseudomonas aeruginosa LptD. The conditions noted are these: ref Srinivas et al., 2010; Lehman and Grabowicz, 2019; cited from earlier work.
Text: as §5

The target in data set [8] is T1, His6-LptC_(24-191), LptC lacking the first 23 residues of the transmembrane domain (Escherichia coli, UniProt P0ADV9 24-191).
T1 sequence (looked up): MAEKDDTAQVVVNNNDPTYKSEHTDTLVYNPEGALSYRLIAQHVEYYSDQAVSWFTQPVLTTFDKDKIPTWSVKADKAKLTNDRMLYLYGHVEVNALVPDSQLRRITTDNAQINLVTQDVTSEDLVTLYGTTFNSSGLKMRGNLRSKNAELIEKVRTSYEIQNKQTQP
Kind of data set: SPR. The settings on record: both partners purified.

Another data set has as its target immobilized LptAm. Kind of data set: SPR, Kd of LptC–LptAm. Details: species or system Escherichia coli. The conditions noted are these: LptC (5.6–100 μM) over immobilized LptAm, CM3 chip, HBS-N, steady-state binding levels, read-out: Kd of LptC–LptAm interaction.
Text: as §2, §3

Data on five molecules can be found in article PMC7237710, “Thanatin Impairs Lipopolysaccharide Transport Complex Assembly by Targeting LptC–LptA Interaction and Decreasing LptA Stability” (Frontiers in Microbiology, 2020).

≈ marks a conversion by molar mass, not a printed value. Entries after “also recorded” stand apart in the source; their conditions may differ. Residues, ends and D or L forms follow the SMILES beside them.

Take `CC[C@H](C)[C@H](NC(=O)[C@H](CS)NC(=O)[C@@H](NC(=O)[C@@H](N)Cc1ccc(O)cc1)C(C)C)C(=O)N[C@@H](CCCNC(=N)N)C(=O)N[C@@H](CCSC)C(=O)N[C@@H](CC(N)=O)C(=O)N[C@@H](CCCCN)C(=O)N[C@H](C(=O)N[C@@H](CO)C(=O)N1CCC[C@H]1C(=O)N[C@@H](CCCCN)C(=O)N[C@@H](CCC(N)=O)C(=O)N[C@@H](CCCNC(=N)N)C(=O)N[C@H](C(=O)N1CCC[C@H]1C(=O)NCC(=O)NCC(=O)N[C@@H](CCCNC(=N)N)C(=O)N[C@@H](CS)C(=O)N[C@@H](CCCCN)C(=O)O)[C@@H](C)O)[C@@H](C)CC` [Thanatin scramble] (H-YVCIRMNKISPKQRTPGGRCK-OH; N-terminus and C-terminus assumed): the MIC entry is “above 64 μg/mL” in the data set with E. coli WT strain MG1655 (MG1655, LB, 24 h, 37°C, start OD600 0.05, twofold dilutions 64 μg/mL to 62.5 ng/mL, OD600 read-out); 64 µg/mL (≈ 26.3 µM) in data set [1] (AS19, LB, 37°C, start OD600 0.05, twofold dilutions 64 μg/mL to 62.5 ng/mL, OD600 read-out); 32 to 64 µg/mL in data set [2] (NR698, LB, 37°C, start OD600 0.05, twofold dilutions 64 μg/mL to 62.5 ng/mL, OD600 read-out); above 64 µg/mL with E. coli BTH101 (BTH101, LB, 24 h, 37°C, start OD600 0.05, twofold dilutions 64 μg/mL to 62.5 ng/mL, OD600 read-out). Further, the antibacterial activity entry in the data set with E. coli WT strain MG1655 (scrambled vs thanatin, in words) was “loses the antibacterial activity”. Moreover, the “effect on LptC binding to immobilized LptAm” value with LptC–LptAm interaction is on record as “no effect on LptC binding”. Also, the “effect on LptC–LptAm interaction (β-galactosidase activity)” value is on record as “fails to disrupt the LptC–LptA interaction in vivo (BACTH assay)” in [3] and “not capable of disrupting these periplasmic interactions in a dose-dependent manner” in data set [3] (listed as thanatin scramble). The “effect on LptA–LptA interaction (β-galactosidase activity)” value in data set [4] was “not capable of disrupting these periplasmic interactions in a dose-dependent manner”. Also, in the data set with LptAm, the “binding to immobilized LptAm” value was “no or little binding”. The “disruption of LptC–LptAm complex (175Ile and 184Ile δ1 methyl shifts)” value with LptC–LptAm complex is “did not change LptC–LptAm spectra; also recorded: fails to disrupt the LptC–LptA interaction in vivo (BACTH assay) and in vitro (NMR)”; in the data set with LptC–LptAm complex (listed as thanatin scramble) it was “no disruption of the LptC–LptAm complex”. Besides, the “MIC relative to WT strain / antibacterial activity” value in [5] is “no significant difference relative to the WT strain”.

For the molecule `CN[C@H](CC(C)C)C(=O)N[C@H]1C(=O)N[C@@H](CC(N)=O)C(=O)N[C@H]2C(=O)N[C@H]3C(=O)N[C@H](C(=O)N[C@H](C(=O)O)c4cc(O)cc(O)c4-c4cc3ccc4O)[C@H](O)c3ccc(c(Cl)c3)Oc3cc2cc(c3O[C@@H]2O[C@H](CO)[C@@H](O)[C@H](O)[C@H]2O[C@H]2C[C@](C)(N)[C@H](O)[C@H](C)O2)Oc2ccc(cc2Cl)[C@H]1O` [Vancomycin, reference compound], the MIC was above 64 µg/mL against E. coli WT strain MG1655 (Escherichia coli, MG1655, 24 h); 4 to 8 µg/mL (≈ 2.76 to 5.52 µM) in data set [1] (Escherichia coli); 0.5 to 1 µg/mL (≈ 0.345 to 0.69 µM) in data set [2] (Escherichia coli); above 64 µg/mL in the data set on E. coli BTH101 (Escherichia coli, BTH101, 24 h).

As to Murepavadin, in data set [6], the clinical toxicity entry is on record as “nephrotoxicity”. Moreover, in [7], the target selectivity result is “selectively directed against Pseudomonas aeruginosa LptD”.

B1: LptAm, LptA residues 28-159 followed by a … tag (purified) (domain or fragment, Escherichia coli, UniProt P0ADV1 28-159, looked up)
chain: VTGDTDQPIHIESDQQSLDMQGNVVTFTGNVIVTQGTIKINADKVVVTRPGGEQGKEVIDGYGKPATFYQMQDNGKPVEGHASQMHYELAKDFVVLTGNAYLQQVDSNIKGDKITYLVKEQKMQAFSDKGKR
notes: also called LptAΔ_(160–185)-His6; monomeric version of LptA; source: E. coli BL21(DE3) (pET21b vector), purified as described (Laguri et al., 2017)
The molecule B1 displayed a dissociation constant (Kd) in data set [8] of 80 ± 44 µM.

B2: LptC: Escherichia coli LptC lacking the first 23 residues of the transmembrane domain, with an N-terminal His-Tag (protein, UniProt P0ADV9 24-191, looked up, fragment)
chain: MAEKDDTAQVVVNNNDPTYKSEHTDTLVYNPEGALSYRLIAQHVEYYSDQAVSWFTQPVLTTFDKDKIPTWSVKADKAKLTNDRMLYLYGHVEVNALVPDSQLRRITTDNAQINLVTQDVTSEDLVTLYGTTFNSSGLKMRGNLRSKNAELIEKVRTSYEIQNKQTQP
modifications: N-terminal His-tag
notes: Escherichia coli LptC lacking the first 23 residues of the transmembrane domain, with an N-terminal His-Tag
As to B2, the Kd on immobilized LptAm was found to be 80 ± 44 µM.
